27 compounds from patent US11229623B2 (GlaxoSmithKline Intellectual Property (No.2) Limited, priority 2016, dated 2022) can be followed below.

The structures appear in SMILES notation. Counter-ions that a name gives are not always drawn.

The first test deals with T1, human TRPV4 (Homo sapiens, UniProt Q9HBA0).
T1 construct: expressed in transfected cells; host or cells: BHK/AC9 cells transduced with BacMam virus
T1 sequence (Q9HBA0 whole entry): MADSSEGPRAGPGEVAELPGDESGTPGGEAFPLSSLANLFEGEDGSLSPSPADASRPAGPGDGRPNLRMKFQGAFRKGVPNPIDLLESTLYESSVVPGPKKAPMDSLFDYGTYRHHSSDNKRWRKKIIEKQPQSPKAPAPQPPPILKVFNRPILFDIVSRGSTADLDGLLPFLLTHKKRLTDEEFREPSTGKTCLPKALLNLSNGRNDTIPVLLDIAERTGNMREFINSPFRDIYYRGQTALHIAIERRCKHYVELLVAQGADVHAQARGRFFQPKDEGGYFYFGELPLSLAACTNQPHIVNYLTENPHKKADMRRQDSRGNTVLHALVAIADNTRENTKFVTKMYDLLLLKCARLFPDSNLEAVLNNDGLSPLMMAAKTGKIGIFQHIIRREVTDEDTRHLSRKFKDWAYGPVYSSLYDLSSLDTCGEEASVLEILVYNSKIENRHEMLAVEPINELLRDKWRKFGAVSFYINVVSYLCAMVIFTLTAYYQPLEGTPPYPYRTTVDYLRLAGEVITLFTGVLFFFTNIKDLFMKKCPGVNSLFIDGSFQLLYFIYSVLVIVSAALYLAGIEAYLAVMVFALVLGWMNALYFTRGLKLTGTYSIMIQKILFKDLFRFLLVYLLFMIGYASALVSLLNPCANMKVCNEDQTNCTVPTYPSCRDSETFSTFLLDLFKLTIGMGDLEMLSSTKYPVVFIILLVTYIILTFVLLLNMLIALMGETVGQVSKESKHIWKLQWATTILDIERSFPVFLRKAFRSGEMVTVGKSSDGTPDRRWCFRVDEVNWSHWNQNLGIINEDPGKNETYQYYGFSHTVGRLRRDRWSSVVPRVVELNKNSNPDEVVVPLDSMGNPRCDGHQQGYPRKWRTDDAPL
Put plainly: FLIPR assay for hTRPV4 expressed in BHK cells: inhibition of Agonist Compound-induced calcium signal. Format: cell-based. The conditions noted are these: IC50, hTRPV4 in BHK/AC9 cells, FLIPR calcium signal, agonist at EC80; reported as range class. In short, it runs like this: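 Calcium influx through TRPV4 tracked by Fluo-4 fluorescence on FLIPR. Cells: BHK/AC9 transduced with BacMam-hTRPV4 at MOI 78, 24 h culture post-plating (15,000 cells/well). Dye loading: 2 μM Fluo-4 AM with 500 μM Brilliant Black quencher, 1-1.5 h, room temperature, dark.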
Take `C[Si](C)(C)C#Cc1ccc(S(=O)(=O)N2C[C@H](Oc3ccc(C#N)c(F)c3)[C@](O)(CO)C2)c(C#N)c1` [Example 221, 4-(((3S,4R)-1-((2-cyano-4-((trimethylsilyl)ethynyl)phenyl)sulfonyl)-4-hydroxy-4-(hydroxymethyl)pyrrolidin-3-yl)oxy)-2-fluorobenzonitrile]: the IC50 lay in the range of 0.1 to 10 nM.

The same test, now with this note: hTRPV4 in BHK/AC9 cells, FLIPR calcium signal, agonist at EC80; reported as range class; read-out: IC50.
With `C#Cc1ccc(S(=O)(=O)N2C[C@H](Oc3ccc(C#N)c(F)c3)[C@](O)(CO)C2)c(C#N)c1` [Example 220, 4-(((3S,4R)-1-((2-cyano-4-ethynylphenyl)sulfonyl)-4-hydroxy-4-(hydroxymethyl)pyrrolidin-3-yl)oxy)-2-fluorobenzonitrile], the IC50 lay in the range of 0.1 to 10 nM.

`CC#Cc1ccc(S(=O)(=O)N2C[C@H](Oc3ccc(C#N)c(F)c3)[C@](O)(CO)C2)cc1` [Example 222, 2-fluoro-4-(((3S,4R)-4-hydroxy-4-(hydroxymethyl)-1-((4-(prop-1-yn-1-yl)phenyl)sulfonyl)pyrrolidin-3-yl)oxy)benzonitrile]: the IC50 was 0.1 to 10 nM.

As to `CC#Cc1ccc(S(=O)(=O)N2C[C@H](Oc3ccc(C#N)c(F)c3)[C@](O)(CO)C2)cn1` [Example 223, 2-fluoro-4-(((3S,4R)-4-hydroxy-4-(hydroxymethyl)-1-((6-(prop-1-yn-1-yl)pyridin-3-yl)sulfonyl)pyrrolidin-3-yl)oxy)benzonitrile], the IC50 fell in the range of 10 to 100 nM.

Take `CC#Cc1cc(C#N)ccc1S(=O)(=O)N1C[C@H](Oc2ccc(C#N)c(F)c2)[C@](O)(CO)C1` [Example 224, 4-(((3S,4R)-1-((4-cyano-2-(prop-1-yn-1-yl)phenyl)sulfonyl)-4-hydroxy-4-(hydroxymethyl)pyrrolidin-3-yl)oxy)-2-fluorobenzonitrile]: the IC50 lay in the range of 10 to 100 nM.

`C#Cc1cc(C(F)(F)F)ccc1S(=O)(=O)N1C[C@H](Oc2ccc(C#N)c(F)c2)[C@](O)(CO)C1` [Example 225, 4-(((3S,4R)-1-((2-ethynyl-4-(trifluoromethyl)phenyl)sulfonyl)-4-hydroxy-4-(hydroxymethyl)pyrrolidin-3-yl)oxy)-2-fluorobenzonitrile]: the half-maximal inhibitory concentration (IC50) fell in the range of 0.1 to 10 nM.

For `N#Cc1ccc(O[C@H]2CN(S(=O)(=O)c3ccc(C#CC4CC4)nc3)C[C@@]2(O)CO)cc1F` [Example 226, 4-(((3S,4R)-1-((6-(cyclopropylethynyl)pyridin-3-yl)sulfonyl)-4-hydroxy-4-(hydroxymethyl)pyrrolidin-3-yl)oxy)-2-fluorobenzonitrile], the IC50 fell in the range of 10 to 100 nM.

`CC#Cc1ccc(S(=O)(=O)N2C[C@H](Oc3ccc(C#N)c(F)c3)[C@](O)(CO)C2)nc1` [Example 227, 2-fluoro-4-(((3S,4R)-4-hydroxy-4-(hydroxymethyl)-1-((5-(prop-1-yn-1-yl)pyridin-2-yl)sulfonyl)pyrrolidin-3-yl)oxy)benzonitrile]: the IC50 fell in the range of 0.1 to 10 nM.

For `C#Cc1ccc(S(=O)(=O)N2C[C@H](Oc3ccc(C#N)c(F)c3)[C@](O)(CO)C2)nc1` [Example 228, 4-(((3S,4R)-1-((5-ethynylpyridin-2-yl)sulfonyl)-4-hydroxy-4-(hydroxymethyl)pyrrolidin-3-yl)oxy)-2-fluorobenzonitrile], the IC50 lay within 10 to 100 nM.

`CC(C)(C)C#Cc1ccc(S(=O)(=O)N2C[C@H](Oc3ccc(C#N)c(F)c3)[C@](O)(CO)C2)nc1` [Example 229, 4-(((3S,4R)-1-((5-(3,3-dimethylbut-1-yn-1-yl)pyridin-2-yl)sulfonyl)-4-hydroxy-4-(hydroxymethyl)pyrrolidin-3-yl)oxy)-2-fluorobenzonitrile]: the IC50 was 10 to 100 nM.

Consider `N#Cc1ccc(O[C@H]2CN(S(=O)(=O)c3ccc(C#Cc4ccccc4)cn3)C[C@@]2(O)CO)cc1F` [Example 230, 2-fluoro-4-(((3S,4R)-4-hydroxy-4-(hydroxymethyl)-1-((5-(phenylethynyl)pyridin-2-yl)sulfonyl)pyrrolidin-3-yl)oxy)benzonitrile], for which the IC50 was 0.1 to 10 nM.

For the compound `N#Cc1ccc(S(=O)(=O)N2C[C@H](Oc3ccc(C#N)c(F)c3)[C@](O)(CO)C2)nc1` [Example 231, 6-(((3R,4S)-4-(4-cyano-3-fluorophenoxy)-3-hydroxy-3-(hydroxymethyl)pyrrolidin-1-yl)sulfonyl)nicotinonitrile], the IC50 lay within 10 to 100 nM.

With `N#Cc1ccc(O[C@H]2CN(S(=O)(=O)c3ccc(Cl)cn3)C[C@@]2(O)CN)cc1F` [Example 233, 4-(((3S,4S)-4-(aminomethyl)-1-((5-chloropyridin-2-yl)sulfonyl)-4-hydroxypyrrolidin-3-yl)oxy)-2-fluorobenzonitrile, Hydrochloride], the IC50 fell in the range of 10 to 100 nM.

Regarding `N#Cc1ccc(O[C@H]2CN(S(=O)(=O)c3ccc(Cl)cn3)C[C@]2(O)CN)cc1F` [Example 234, 4-(((3S,4R)-4-(aminomethyl)-1-((5-chloropyridin-2-yl)sulfonyl)-4-hydroxypyrrolidin-3-yl)oxy)-2-fluorobenzonitrile, Hydrochloride], the IC50 is 10 to 100 nM.

Turning to `N#Cc1ccc(O[C@H]2CN(S(=O)(=O)c3ccc(Cl)cc3C#N)C[C@]2(O)CN)cc1F` [Example 235, 4-(((3S,4R)-4-(aminomethyl)-1-((4-chloro-2-cyanophenyl)sulfonyl)-4-hydroxypyrrolidin-3-yl)oxy)-2-fluorobenzonitrile, Hydrochloride], the IC50 lay within 0.1 to 10 nM.

Consider `N#Cc1ccc(O[C@H]2CN(S(=O)(=O)c3ccc(Cl)cc3C#N)C[C@]2(O)CNCCO)cc1F` [Example 236, 4-(((3S,4R)-1-((4-chloro-2-cyanophenyl)sulfonyl)-4-hydroxy-4-(((2-hydroxyethyl)amino)methyl)pyrrolidin-3-yl)oxy)-2-fluorobenzonitrile, 2,2,2-trifluoroacetate], for which the IC50 fell in the range of 0.1 to 10 nM.

`CNC[C@]1(O)CN(S(=O)(=O)c2ccc(C(F)(F)F)cc2C#N)C[C@@H]1Oc1ccc(C#N)c(F)c1` [Example 237, 4-(((3S,4S)-1-((2-cyano-4-(trifluoromethyl)phenyl)sulfonyl)-4-hydroxy-4-((methylamino)methyl)pyrrolidin-3-yl)oxy)-2-fluorobenzonitrile, 2,2,2-trifluoroacetate]: the half-maximal inhibitory concentration (IC50) lay within 0.1 to 10 nM.

Regarding `CCNC[C@]1(O)CN(S(=O)(=O)c2ccc(C(F)(F)F)cc2C#N)C[C@@H]1Oc1ccc(C#N)c(F)c1` [Example 238, 4-(((3S,4S)-1-((2-cyano-4-(trifluoromethyl)phenyl)sulfonyl)-4-((ethylamino)methyl)-4-hydroxypyrrolidin-3-yl)oxy)-2-fluorobenzonitrile, 2,2,2-trifluoroacetate], the IC50 lay in the range of 0.1 to 10 nM.

Turning to `CC(C)NC[C@]1(O)CN(S(=O)(=O)c2ccc(C(F)(F)F)cc2C#N)C[C@@H]1Oc1ccc(C#N)c(F)c1` [Example 239, 4-(((3S,4S)-1-((2-cyano-4-(trifluoromethyl)phenyl)sulfonyl)-4-hydroxy-4-((isopropylamino)methyl)pyrrolidin-3-yl)oxy)-2-fluorobenzonitrile, 2,2,2-trifluoroacetate], the IC50 lay in the range of 0.1 to 10 nM.

Take `N#Cc1ccc(O[C@H]2CN(S(=O)(=O)c3ccc(Cl)cc3C#N)C[C@@]2(O)CN)cc1F` [Example 240, 4-(((3S,4S)-4-(aminomethyl)-1-((4-chloro-2-cyanophenyl)sulfonyl)-4-hydroxypyrrolidin-3-yl)oxy)-2-fluorobenzonitrile]: the IC50 was in the range of 0.1 to 10 nM.

`Cn1ncc(Cl)c1S(=O)(=O)N1C[C@H](Oc2ccc(C#N)c(F)c2)[C@](O)(CN)C1` [Example 241, 4-(((3S,4S)-4-(aminomethyl)-1-((4-chloro-1-methyl-1H-pyrazol-5-yl)sulfonyl)-4-hydroxpyrrolidin-3-yl)oxy)-2-fluorobenzonitrile, 2,2,2-trifluoroacetate]: the IC50 is 10 to 100 nM.

Consider `N#Cc1ccc(O[C@H]2CN(S(=O)(=O)c3ccc(F)cn3)C[C@@]2(O)CN)cc1F` [Example 242, 4-(((3S,4S)-4-(aminomethyl)-1-((5-fluoropyridin-2-yl)sulfonyl)-4-hydroxpyrrolidin-3-yl)oxy)-2-fluorobenzonitrile, 2,2,2-trifluoroacetate], for which the IC50 was in the range of 10 to 100 nM.

As for `N#Cc1ccc(S(=O)(=O)N2C[C@H](Oc3ccc(C#N)c(F)c3)[C@](O)(CN)C2)cn1` [Example 243, 5-(((3S,4S)-3-(aminomethyl)-4-(4-cyano-3-fluorophenoxy)-3-hydroxpyrrolidin-1-yl)sulfonyl) picolinonitrile, 2,2,2-trifluoroacetate], the IC50 fell in the range of 10 to 100 nM.

Turning to `N#Cc1ccc(O[C@H]2CN(S(=O)(=O)c3ccc(C(F)F)cn3)C[C@@]2(O)CN)cc1F` [Example 244, 4-(((3S,4S)-4-(aminomethyl)-1-((5-(difluoromethyl)pyridin-2-yl)sulfonyl)-4-hydroxpyrrolidin-3-yl)oxy)-2-fluorobenzonitrile], the IC50 lay in the range of 10 to 100 nM.

As for `N#Cc1ccc(O[C@H]2CN(S(=O)(=O)c3ccc(C(F)(F)F)nc3)C[C@@]2(O)CN)cc1F` [Example 245, 4-(((3S,4S)-4-(aminomethyl)-4-hydroxy-1-((6-(trifluoromethyl)pyridin-3-yl)sulfonyl)pyrrolidin-3-yl)oxy)-2-fluorobenzonitrile, Hydrochloride], the IC50 fell in the range of 10 to 100 nM.

Turning to `N#Cc1ccc(O[C@H]2CN(S(=O)(=O)c3ccc(Cl)cn3)C[C@@]2(O)CN)cc1` [Example 246, 4-(((3S,4S)-4-(aminomethyl)-1-((5-chloropyridin-2-yl)sulfonyl)-4-hydroxpyrrolidin-3-yl)oxy)benzonitrile], the 50% inhibitory concentration (IC50) is 10 to 100 nM.

For `N#Cc1ccc(O[C@H]2CN(S(=O)(=O)c3ccc(OC(F)F)cn3)C[C@@]2(O)CN)cc1F` [Example 247, 4-(((3S,4S)-4-(aminomethyl)-1-((5-(difluoromethoxy)pyridin-2-yl)sulfonyl)-4-hydroxypyrrolidin-3-yl)oxy)-2-fluorobenzonitrile, 2,2,2-trifluoroacetate], the IC50 is 10 to 100 nM.
